The source of these data is article PMC12668310, “High‐Throughput Synthesis and Screening of a Cyanimide Library Identifies Selective Inhibitors of ISG15‐Specific Protease mUSP18” (Angewandte Chemie (International Ed. in English), 2025).

Assay [1] concerns cellular ISGylation in EL4 cells. The assay can be described thus: ISGylation accumulation in mouse IFN-β-stimulated EL4 cells (anti-mISG15 western blot). Format: cell-based. To be noted: 4 h treatment; for effect on cellular ISGylation: anti-mISG15 blot. As for the experimental part: Figure 6 Inhibition of murine USP18 activity in living cells. a) Gel‐based ABPP potency assessment using a Rho‐mISG15ct‐PA probe in HEK293T cells overexpressing Flag‐mUSP18. At 24 h following transfection, cells were incubated with DMSO or increasing concentrations of indicated inhibitors for 4 h, lysed, and treated with Rho‐mISG15ct‐PA probe. Top panel: fluorescence scan. Middle panel: anti‐Flag western blot. Bottom panel: anti‐GAPDH western blot confirms equal loading. b) Accumulation of ISGylation in mouse IFN‐β‐stimulated EL4 cells. At 24 h following mouse IFN‐β treatment, cells were incubated with DMSO or increasing concentrations of indicated inhibitors for 4 h, lysed, and treated with Rho‐mISG15ct‐PA probe. Top panel: anti‐mISG15 western blot. Middle panel: fluorescence scan. Bottom panel: anti‐β‐actin western blot confirms equal loading.
Ultimately, we were interested in whether USP18 inhibitor treatment could result in a relevant phenotype in cells. USP18 is the major deISGylase to remove ISG15 from target proteins, and genetic inactivation of USP18 isopeptidase activity leads to enhanced ISGylation in vivo and in cells.^[ [26] ^] We therefore examined whether the USP18 inhibitors enhance cellular ISGylation. Accordingly, EL4 cells were stimulated with IFN‐β to induce the ISG15 machinery, prior to treatment with the inhibitors. After cell lysis and SDS‐PAGE, ISGylated proteins were stained by immunoblotting with an ISG15 antibody (Figure 6b, top panel). […] To confirm inhibition of endogenous USP18 in these experiments, samples were post‐lysis treated with Rho‐mISG15ct‐PA probe.
Generation of ISGylation and in-cell inhibition assay
Mouse EL4 cells were stimulated with 300 U/mL mouse IFN-β. At 24 hours following stimulation, cells were incubated with indicated compounds at the indicated final concentrations at 37 °C for 4 hours, then washed twice with PBS and harvested for further […]
Activity-based probe labelling
The in-cell inhibition of DUBs and mUSP18 was assessed using activity-based probe labelling assays. In brief, cell pellets were resuspended in HR buffer (50 mM Tris-HCl, 5 mM MgCl 2, 250 mM sucrose, 2 mM TCEP and a Protease inhibitor tablet (Roche), pH 7.4), and lysed by sonication (Bioruptor, Diagenode, high intensity for 10 minutes with an ON/OFF cycle of 30 seconds) at 4°C. 40 μg clarified cell lysate was incubated with Rhodamine-mISG15ct-propargylamide probe[1] (final concentration 1 μM) or Rhodamine-Ubiquitin-propargylamide probe[13] (final concentration 1 μM) at 37 °C for 30 min. Reactions were stopped by the addition of LDS (lithium dodecyl sulfate) sample buffer (Invitrogen Life Technologies, Carlsbad, CA, USA) containing 2.5% β-mercaptoethanol, followed by boiling for 7 minutes.
SDS-PAGE, in-gel fluorescence scanning, and immunoblotting
Samples were resolved on precast Bis-Tris NuPAGE Gels (Invitrogen, including 4-12%, and 10% for different samples) using MOPS buffer (Invitrogen Life Technologies, Carlsbad, CA, USA). For fluorescence scan, labeled enzymes were visualized by in-gel fluorescence using a Typhoon FLA 9500 imaging system (GE Healthcare Life Sciences) (Rhodamine channel for probe, Cy5 channel for protein marker).
For immunoblotting, proteins were transferred to a nitrocellulose membrane (Protan BA85, 0.45 μm, GE Healthcare) at 300 mA for 3 hours. […]

The target in the next assay is T1, mUSP18 (Mus musculus, UniProt Q9WTV6).
T1 construct: (46-368); His-tag (N); made in house
T1 sequence (Q9WTV6 46-368): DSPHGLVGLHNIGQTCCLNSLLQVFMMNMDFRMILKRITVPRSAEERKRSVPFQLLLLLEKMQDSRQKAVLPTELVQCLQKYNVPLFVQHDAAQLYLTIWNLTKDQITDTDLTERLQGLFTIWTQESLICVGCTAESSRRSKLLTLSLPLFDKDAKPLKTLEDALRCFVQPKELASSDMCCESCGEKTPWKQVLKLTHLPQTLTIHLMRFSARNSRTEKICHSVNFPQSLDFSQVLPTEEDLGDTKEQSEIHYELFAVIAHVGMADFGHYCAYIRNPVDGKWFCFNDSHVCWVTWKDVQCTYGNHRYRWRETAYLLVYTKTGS
Briefly: kinact/KI determination (kobs plot). In kind it is biochemical, murine.

Assay [2] concerns the target T2, human USP18/ISG15 interaction (Homo sapiens, UniProt Q9UMW8).
T2 sequence (Q9UMW8 1-372): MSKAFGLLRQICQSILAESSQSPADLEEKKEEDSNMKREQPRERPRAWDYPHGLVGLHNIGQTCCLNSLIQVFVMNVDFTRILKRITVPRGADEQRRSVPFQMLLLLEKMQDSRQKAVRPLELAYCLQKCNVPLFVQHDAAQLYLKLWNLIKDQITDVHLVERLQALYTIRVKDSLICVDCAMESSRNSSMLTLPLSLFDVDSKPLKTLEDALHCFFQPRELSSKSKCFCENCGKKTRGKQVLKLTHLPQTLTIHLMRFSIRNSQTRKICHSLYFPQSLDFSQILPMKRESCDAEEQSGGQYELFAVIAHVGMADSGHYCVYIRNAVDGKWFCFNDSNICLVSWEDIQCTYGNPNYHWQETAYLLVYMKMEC
Briefly: NanoBRET assay, hUSP18/ISG15 interaction in HEK293T cells. A general note: In BRET a luciferase serves as donor, and the signal depends on an acceptor being close.
Procedure: We tested whether our USP18 activity inhibitor could also affect USP18's nonenzymatic function using our recently developed NanoBRET assay to monitor the interactions of USP18 with STAT2 and ISG15.^[ [43] ^]
normalised to the DMSO control and inhibition was assessed by fitting the data to a dose-
Data are shown as mean ± SD from one biological replicate with
three technical replicates.
Transient NanoBRET assays were performed
following the manufacturer’s instructions (Promega). Briefly, HEK293T cells were transfected
with NanoLuc and HaloTag fusion vectors at 1:100 ratio (20 ng NanoLuc and 2 µg HaloTag
plasmid). After approx. 20 h, cells were harvested, resuspended in phenol red–free Opti-MEM
media supplemented with 4% FCS, and plated in white, flat-bottom, 96-well tissue culture
Immediately before signal detection,
NanoBRET Nano-Glo substrate (Promega) was added, and luminescence was recorded using
nm (HaloTag acceptor). The corrected NanoBRET ratio (mBU) was calculated by dividing the
acceptor signal by the donor signal and subtracting the background signal obtained from the

Structures are written as SMILES.

Turning to `Cc1cc(C(=O)N[C@H]2C[C@@H]3CN(C#N)C[C@@H]3C2)ccc1Br` [BB07CA28], in assay [1], the “concentration of maximum accumulation of ISGylation” value stood at 10 µM and the “effect on cellular ISGylation” value is on record as “significantly elevated cellular ISGylation”.
Take `Cc1cc(C(=O)N[C@H]2C[C@@H]3CN(C#N)C[C@@H]3C2)ccc1C(C)C` [BB07CA902]: the kinact/KI at mUSP18 worked out at 4650 M⁻¹ s⁻¹. In assay [1], the “concentration of maximum accumulation of ISGylation” value is 10 µM and the “effect on cellular ISGylation” value is listed as “significantly elevated cellular ISGylation”. Also, in assay [2], the “inhibition of hUSP18/ISG15 interaction” value is reported as “did not observe any inhibition”.

Broadly, the kinact/KI is the maximal inactivation rate divided by the concentration that gives half of it.
